# Assay results from patent publication US8337858B2, “Extracts of Aphanizomenon Flos Aquae and nutritional, cosmetic and pharmaceutical compositions containing the same” (Nutratec S.R.L., priority 2006, dated 2012).
# Read-outs that look alike come from different tables or passages of the source.
# Experiments:
# [1] = ORAC (Oxygen Radical Absorbance Capacity) assay with fluorescein and AAPH; assay type: biochemical; settings: for ORAC value: fluorescein, AAPH 4 mM, 37° C.; for ORACFL value expressed per mg: recalculated from Ou et al., 2001
# Description: The ORAC assay was carried out at 37° C. on a FLUOstar OPTIMA spectrofluorimeter (BGM LABTECH, Germany) at 485 nm excitation and 520 nm emission, using the method of Ou et al. (32) with minor modifications. Briefly, in the final assay mixture, fluorescein (FL) (0.05 μM) was used as a target of free radical attack, with AAPH (4 mM) as a peroxyl radical generator. Trolox (1 μM) was used as a control standard and phosphate buffer as a blank. The concentrations of tested compounds in the assay mixture ranged from 0.025 μM to 2 μM. All substances were dissolved and diluted with 75 mM Na-phosphate buffer pH 7; PCB solution was made by dissolving the compound first in ethanol and then bringing the solution to the desired concentration with the buffer. All samples were run in triplicate. Fluorescence was recorded every 5 min after AAPH was added. Final results (ORAC values) were calculated using the differences in the areas under the fluorescence decay curves (AUC) between the sample and blank and expressed as Trolox equivalents: ORAC value=[(AUCsample−AUCblank)/(AUCtrolox−AUCblank)]×(molaritytrolox/molaritysample)
# To evaluate the antioxidant capacity of the extract in terms of the ORAC test, we used the same methodology we used to test the ORAC for PC and PCB. In order to test both the water soluble and the lipid soluble components of the AFA extract, we first prepared the two water and lipid soluble extracts, as follows.
# Preparation of the Water Soluble Extract • Weigh 10 mg of extract in 1 ml of distilled water and homogenize for 1 min through a mechanical potter. • Centrifuge at 2500 rpm for 10′ at 4° C. to remove cellular debris. • Collect the supernatant and resuspend the pellet in 1 ml of water. • Homogenize for 1 min with a mechanical potter. • Centrifuge at 2500 rpm for 10′ at 4° C. • Collect the supernatant and mix with that obtained from the first water extraction. • Preserve the water extract (with a blue color for the presence of the PC) at +4 o-20° C.
# Preparation of the Lipid Soluble Extract • Resuspend the pellet obtained from the previous extraction in 1 ml of acetone. • Homogenize for 1 min with a mechanical potter. • Centrifuge at 2500 rpm for 10′ at 4° C. • Collect the supernatant and resuspend the pellet in 1 ml of acetone. • Homogenize for 1 min with a mechanical potter. • Centrifuge at 2500 rpm for 10′ at 4° C. • Collect the supernatant and mix with that obtained from the first extraction with acetone. • Preserve the lipophilic extract (with an orange color for the presence of carotenes) at +4°-20° C.
# [2] = test system: human plasma oxidized by CuCl2; test: MDA (TBA test) formation in human plasma oxidized by CuCl2; settings: read-out: IC50, metal-induced oxidation of plasma lipids (MDA); plasma incubated 2 hours at 37° C. with CuCl2 (FIG. 9A panel B)
# [3] = target: T1, COX-1 (Ovis aries, UniProt P05979); test: COX Inhibitor Screening Assay (Cayman), COX-1; assay type: biochemical
# T1 construct: purchased Cayman
# T1 sequence (P05979 25-600): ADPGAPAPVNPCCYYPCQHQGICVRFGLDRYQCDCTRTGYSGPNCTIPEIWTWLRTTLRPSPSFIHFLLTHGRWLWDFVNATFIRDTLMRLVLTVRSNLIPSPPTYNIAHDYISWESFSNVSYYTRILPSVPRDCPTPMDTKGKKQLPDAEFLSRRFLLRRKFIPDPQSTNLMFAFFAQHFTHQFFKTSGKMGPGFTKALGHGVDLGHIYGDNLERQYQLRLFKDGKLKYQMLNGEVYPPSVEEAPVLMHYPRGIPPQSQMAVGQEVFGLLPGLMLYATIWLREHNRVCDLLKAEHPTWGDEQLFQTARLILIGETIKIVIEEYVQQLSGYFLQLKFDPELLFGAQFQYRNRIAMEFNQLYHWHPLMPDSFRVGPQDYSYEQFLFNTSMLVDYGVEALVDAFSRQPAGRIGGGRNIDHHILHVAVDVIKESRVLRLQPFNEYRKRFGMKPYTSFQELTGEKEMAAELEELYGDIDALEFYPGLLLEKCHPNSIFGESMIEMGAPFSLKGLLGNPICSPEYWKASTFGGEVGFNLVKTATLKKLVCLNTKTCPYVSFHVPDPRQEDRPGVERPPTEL
# Description: (§1) Given that the phycocyanins from Klamath AFA algae are different from the ones from Spirulina, ands that no test has ever been done on their effect on the COX enzymes, we decided to perform such test through the immunoenzymatic kit “COX Inhibitor Screening Assay” of the Cayman company. We thus evaluated the COX-1 and COX-2 inhibition by the AFA extract (both the water soluble part in water, and the lipid soluble in acetone; range 25-200 μg/ml); by the pure PC (0.03-3 μM) and PCB (0-15 μM). The results are shown in FIG. 29, presenting the graphic of the percent activity of COX-1 and COX-2 at the different concentrations of AFA extract, PC and PCB.
# [4] = target: T2, COX-2 (Homo sapiens, UniProt P35354); test: COX Inhibitor Screening Assay (Cayman), COX-2; assay type: biochemical; settings: 0-15 μM
# T2 construct: purchased Cayman
# T2 sequence (P35354 18-604): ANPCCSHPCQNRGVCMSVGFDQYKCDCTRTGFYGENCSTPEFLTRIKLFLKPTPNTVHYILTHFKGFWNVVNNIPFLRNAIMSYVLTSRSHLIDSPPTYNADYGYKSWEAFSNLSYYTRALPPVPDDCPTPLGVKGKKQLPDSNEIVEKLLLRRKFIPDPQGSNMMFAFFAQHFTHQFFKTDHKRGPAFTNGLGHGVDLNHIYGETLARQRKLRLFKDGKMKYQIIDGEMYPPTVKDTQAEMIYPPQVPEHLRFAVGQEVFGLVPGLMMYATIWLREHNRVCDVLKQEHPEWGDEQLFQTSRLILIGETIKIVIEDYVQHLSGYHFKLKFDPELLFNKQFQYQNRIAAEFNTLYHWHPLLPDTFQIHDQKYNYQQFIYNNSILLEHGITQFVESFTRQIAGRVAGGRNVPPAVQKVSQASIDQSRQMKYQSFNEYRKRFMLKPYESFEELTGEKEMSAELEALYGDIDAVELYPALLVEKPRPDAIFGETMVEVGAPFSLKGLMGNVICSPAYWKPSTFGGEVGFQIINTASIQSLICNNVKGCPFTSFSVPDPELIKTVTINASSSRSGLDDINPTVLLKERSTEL
# Description: as §1
# [5] = test system: Jurkat cells; test: Intracellular dichlorofluorescein fluorescence in Jurkat cells oxidized with H2O2; assay type: cell-based
# Description: Starting from the Basic extract, and following the methodology already described, we have purified the AFA-phycocyanin, with its C-PC/PEC complex, to test its antioxidant properties on live cultured cells. The Jurkat cells (immortalized line of leucemia T-lymphocytes) have been subjected to oxidative stress with 500 μM H2O2, together or without increasing dosages of AFA-PC and PCB. The fluorescence emitted by the intracellular probe (dichlorofluorescein), following oxydation from H2O2, has been recorded after 30 minutes of incubation with H2O2 through a fluorimeter (exc. at 492 nm and emission at 520 nm). By incubating cells with both AFA-PC (range 0.1-10 μM) and 500 μM H2O2 for 30 minutes we observe a dose-dependent protective effect with a reduction of intracellular fluorescence induced by H2O2, with an IC50 of 0.5 μM, and a 100% inhibition (non-oxidized cells) at 10 μM (FIG. 13).
# The antioxidant properties of the whole PC, composed of C-PC and PEC, resides in its chromophores, which are phycocyanibilin (PCB) for C-PC and both PCB and PVB (phycoviolobilin) for PEC. We have purified the C-PC chromophore PCB, to test it on cultured cells oxidized with H2O2 (range FCB 0.1-40 μM). Also in this case we observe a dose-dependent antioxidant effect with an IC50 of 0.5 μM, and a 100% inhibition (non-oxidized cells) at 40 μM (FIG. 13).
# Most importantly, to evaluate the cellular absorption of PC and PCB, both compounds have been pre-incubated for 2 hrs. with the cells; afterwards, the medium has been washed, to exclude any unabsorbed PC and PCB, and the cells have been oxidized for 30 min. with H2O2. As shown by the FIG. 14, there is a dose-dependent inhibition of intracellular fluorescence. This means that the cell is able to retain both antioxidant molecules, either in the membrane or in the cytoplasm.
# [6] = Ou et al., 2001; cited from earlier work
compound,measurement,setting,value
"N[C@@H](CCC(=O)N[C@@H](CS)C(=O)NCC(=O)O)C(=O)O [GSH, reduced glutathione]",ORAC value,[1],0.57 Trolox equiv.
phycocyanobilin [PCB],IC50,[2],~160 nM
same,ORAC value expressed per mg,[1],37.0 μmol Trolox/mg
same,ORAC value,[1],22.18 Trolox equiv.
same,effect on COX-1 activity,[3],increases the COX-1 activity
same,COX-2 inhibition,[4],scarcely inhibitor of the COX-2
same,inhibition of intracellular fluorescence,"[5]; 40 μM, together with H2O2",100%
same,oxidative effect (increase of intracellular fluorescence),[5]; incubated 30 minutes with cells without H2O2,do not have any oxidative effect
same,oxidative effect (increase of intracellular fluorescence),[5]; incubated 2 hrs. with cells,did not produce any oxidative effect
same,IC50,"[5]; incubated together with 500 μM H2O2 for 30 minutes (FIG. 13), read-out: IC50, reduction of intracellular fluorescence induced by H2O2",500 nM
same,"protection, absorption test","[5]; pre-incubated 2 hrs., medium washed, then H2O2 30 min (FIG. 14)",more than 90%
same,IC50,"[5]; pre-incubated 2 hrs., medium washed, then H2O2 30 min (FIG. 14), read-out: IC50, inhibition of intracellular fluorescence, absorption test",1900 nM
O=c1c(O)c(-c2ccc(O)c(O)c2)oc2cc(O)cc(O)c12 [quercetin],ORACFL value expressed per mg,[1],24.0 μmol Trolox/mg compound
same,ORACFL value,[6],7.28 μmol Trolox/μmol compound
Oc1cc(O)c2c(c1)O[C@H](c1ccc(O)c(O)c1)[C@@H](O)C2 [(+)-catechin],ORACFL value expressed per mg,[1],23.3 μmol Trolox/mg compound
same,ORACFL value,[6],6.76 μmol Trolox/μmol compound
O=C1O[C@H]([C@@H](O)CO)C(O)=C1O [AA],ORAC value,[1],0.75 Trolox equiv.
